As usually defined, the melting point is the temperature of the solid-liquid transition. Usually IC50 stands for the point on the concentration scale where inhibition reaches its midpoint. High values mean a need for much substance, low ones inhibition by little substance.

Counter-ions that a name gives are not always drawn.

Series [1] deals with T1, CB1 receptor (Mus musculus, UniProt P47746).
T1 construct: Mouse vasa deferentia were dissected with capsular connective tissue intact and set up in 20 ml organ baths; from tissue; host or cells: mouse (Swiss white) isolated vas deferens
T1 sequence (P47746 whole entry): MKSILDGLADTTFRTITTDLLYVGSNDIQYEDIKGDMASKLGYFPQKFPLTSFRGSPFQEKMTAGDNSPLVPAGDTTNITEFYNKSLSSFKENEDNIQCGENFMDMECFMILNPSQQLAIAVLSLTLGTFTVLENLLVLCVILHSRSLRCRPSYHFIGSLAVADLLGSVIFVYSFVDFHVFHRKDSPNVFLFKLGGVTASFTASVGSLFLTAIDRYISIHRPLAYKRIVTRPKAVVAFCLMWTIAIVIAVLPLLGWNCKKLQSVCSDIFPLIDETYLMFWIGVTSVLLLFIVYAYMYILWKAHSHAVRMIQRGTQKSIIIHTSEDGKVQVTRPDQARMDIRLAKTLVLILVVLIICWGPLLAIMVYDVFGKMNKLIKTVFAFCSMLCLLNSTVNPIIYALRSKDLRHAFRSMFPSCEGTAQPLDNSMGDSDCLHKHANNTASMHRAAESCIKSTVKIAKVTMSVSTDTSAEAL
The series is described as follows: Mouse electrically-stimulated isolated vas deferens bioassay (MVD). Conditions: decrease of electrically evoked twitch force; for inhibition at 1 µM: read-out: CB1 (MVD) % inh at 1.0 μM. It counts as cell-based. On the procedure:
Functional activity of the compounds was assayed using the mouse electrically-stimulated vas deferens bioassay, a measure of CB1 receptor function (24,25). […] CB2 functionality may be investigated using assays known to those skilled in the art; for example those described in U.S. Pat. No. 6,013,648.
Swiss white mice (35-40 g) were killed by exposure to 80% CO2 in O2 and exsanguination. Mouse vasa deferentia were dissected with capsular connective tissue intact and set up in 20 ml organ baths at 37° C. in Mg^2+-free physiological salt solution. The upper (epididymal) end was attached to an isometric force transducer (Grass FTO3C) and the lower (prostatic) end tied to a fixed support between two parallel platinum field electrodes (5 mm apart, 5 mm long). The tissue was initially stretched by 0.5 g force and allowed to equilibrate 10 min. The tissues were stimulated (Grass S88 stimulator) to contract using trains of electrical field stimulation of 3 pulses (4 Hz), 0.5 ms duration, 100 V (80% maximal voltage) every 20 s for 10 min. This electrical stimulation period was applied before and after both antagonist and agonist addition. Output from the transducer amplifier was recorded on a flat bed recorder (Gould BS 272, Cleveland, Ohio, U.S.A.). All drugs were dissolved in dimethyl sulfoxide (DMSO; Sigma, St Louis, Mo., U.S.A.) and allowed to equilibrate with the tissue for 30 min before the responses to field stimulation were assessed. Drug effects were measured as the percentage decrease of the pre-drug twitch force.

Series [2] has as its target T2, CB2 receptor (Rattus norvegicus, UniProt Q9QZN9).
T2 sequence (Q9QZN9 1-343 limits assumed): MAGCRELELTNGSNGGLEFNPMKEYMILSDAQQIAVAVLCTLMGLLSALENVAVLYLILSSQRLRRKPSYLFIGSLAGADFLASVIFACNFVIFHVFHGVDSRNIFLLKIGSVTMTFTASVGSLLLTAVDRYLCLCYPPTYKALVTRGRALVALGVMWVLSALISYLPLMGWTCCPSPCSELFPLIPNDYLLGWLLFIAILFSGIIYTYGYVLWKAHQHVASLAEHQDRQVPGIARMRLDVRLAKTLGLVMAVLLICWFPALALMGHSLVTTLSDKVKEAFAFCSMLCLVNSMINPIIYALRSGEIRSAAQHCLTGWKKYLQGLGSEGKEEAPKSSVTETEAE
The series is described as follows: Radioligand binding assay, rat spleen membranes. As for the experimental part: (§1) The affinity of compounds at cannabinoid receptors is routinely assessed using ligand binding assays known to those skilled in the art. Radioligand binding assays were conducted using rat cerebellum or rat spleen. The cerebellum of the rat is known to express predominantly, if not exclusively, the CB1 receptor subtype (20,21). Thus, binding constants obtained from these studies are characterised by a single affinity value, as only one receptor type is labelled. […] In contrast, biphasic binding curves in the spleen characterised by two affinity constants represent the profile of compounds showing selectivity for one receptor subtype over another. In order to determine the order of selectivity, the high and low affinity values obtained for these compounds in the spleen binding assays were compared to the single affinity estimates obtained for the cerebellum (CB1) assays.
Sprague Dawley rats (200-300 g) were killed by gassing with 80% CO2 in O2 and decapitation and the spleen excised rapidly and placed in ice-cold Tris-HCl buffer (Tris 50 mM, MgCl2 3 mM, EGTA 0.2 mM, pH 7.4). The spleen was weighed and diced using a scalpel before homogenisation in 10 volumes of Tris-HCl buffer. The homogenate was then made up to 20 volumes and centrifuged (12,600 g, 5 min, 4° C.), the supernatant was retained and centrifuged (23,800 g, 20 min, 4° C.). The pellet was resuspended in 10 volumes of buffer and assayed for protein content using the method of Bradford (Bradford, 1976) with BSA as the standard. The homogenate was then recentrifuged and the final pellet resuspended in Tris-HCl buffer at a protein concentration of 5 mg/ml and stored in 500 μl aliquots at −80° C. until used for the binding assay.
(§2) Ligand binding assays were performed in polypropylene tubes in a total volume of 1 ml containing Tris-HCl buffer, a final concentration of 1 mg/ml BSA, and varying concentrations of drugs. Tubes contained 30 μg of membrane protein and incubation was started by the addition of 100 μl of either 0.5 nM [^3H]SR141716A or 0.2 nM [^3H]WIN 55,212-2. Experiments were carried out in triplicate at 30° C. for 90 min with non-specific binding being defined as radioligand binding in the presence of 1 μM unlabelled WIN 55,212-2. Incubations were terminated by rapid filtration with a M-24 Cell Harvester (Brandel; Gaithersburg, Md., U.S.A.) using ice-cold Tris-HCl buffer containing 0.5 mg/ml BSA. Filters (Wattman GF/B) were soaked for 2 h prior to filtering in a solution of Tris-HCl buffer containing 3 mg/ml BSA and 0.5% w/w polyethyleneimine (PEI). Filters were left to dry thoroughly before placement into scintillation vials with 5 ml of scintillation cocktail (Ultima Gold LSC-cocktail; Packard Bioscience, Meriden, Conn., U.S.A.) being added. Vials were left to stand overnight before the radioactivity was determined using a Model 1409 DSA Liquid Scintillation counter (EG&E Wallac, Gaithersburg, Md., U.S.A.).
(§3) The resulting radioligand binding curves were analyzed by nonlinear regression using the program PRISM 3.0 (GraphPad Software, San Diego, Calif.) in order to derive ligand affinity estimates for the cannabinoid receptor(s).

Series [3] addresses T3, CB1 receptor (Rattus norvegicus, UniProt P20272).
T3 construct: the cerebellum was dissected away from the rest of the brain, weighed and homogenised; from tissue; host or cells: Sprague Dawley rat cerebellum membranes
The series is described as follows: Radioligand binding assay, rat cerebellum membranes. On the procedure: as §1
Sprague Dawley rats of either sex (200-300 g) were killed by gassing with 80% CO2 in O2 and decapitation, and the entire brain excised rapidly and placed in ice-cold Tris-HCl buffer (Tris 50 mM, MgCl2 3 mM, EGTA 0.2 mM, pH to 7.4 with HCl). On ice, the cerebellum was dissected away from the rest of the brain, weighed and homogenised (PT-DA 1205/2EC Polytron Aggregate; Kinematica, Luzernerstrasse Switzland) in 10 volumes of ice-cold Tris-HCl buffer. The homogenate was then made up to 20 volumes and centrifuged (Model J2-M1, Beckman, Fullerton, Calif., U.S.A.) at […] for 15 min at 4° C.). Subsequently, the supernatant was discarded, the pellet resuspended in 20 volumes of buffer and centrifuged as before. The resulting pellet was then resuspended in 20 volumes of buffer and assayed for protein content using the method of Bradford (Bradford, 1976) in a Novaspec II spectrophotometer (Pharmacia Biotech; with bovine serum albumin (BSA; Hömosafe BSA, c/o ‘ScimaR’ Templestowe, Australia) as the standard. The homogenate was then recentrifuged and the final pellet resuspended in Tris-HCl buffer at a protein concentration of 5 mg/ml and stored in 500 μl aliquots at −80° C. until used in the binding assay.
as §2, §3

T3 sequence (P20272 whole entry): as the sequence (P47746 whole entry) above, with D95E counted along it

The molecule `c1ccc(Cc2noc(-c3cn(CCN4CCCC4)c4ccccc34)n2)cc1` (as salt: tartrate) [Compound 1, 3-(3-Benzyl-[1,2,4]-oxadiazol-5-yl)-1-[2-(pyrrolidin-1-yl)ethyl]-1H-indole] had a melting point of 59 to 60 °C.

`CCCCC/C=C\C/C=C\C/C=C\C/C=C\CCCC(=O)NCCO` [Anandamide, reference compound]: the inhibition at 1 µM in series [1] was 84%.

For the molecule `c1ccc(Cc2noc(-c3cn(CCN4CCOCC4)c4ccccc34)n2)cc1` [Compound 2, 3-(3-Benzyl-[1,2,4]-oxadiazol-5-yl)-1-[2-(morpholin-4-yl)ethyl]-1H-indole], the IC50 in series [2] and in series [3] was 1000 nM in each case. Further, the inhibition at 1 µM in series [1] worked out at 96%.

In the case of `c1ccc(-c2noc(-c3cn(CCN4CCOCC4)c4ccccc34)n2)cc1` [Compound 3, 3-(3-Phenyl-[1,2,4]-oxadiazol-5-yl)-1-[2-(morpholin-4-yl)ethyl]-1H-indole], the melting point lay in the range of 144 to 146 °C. The molecule also had an IC50 in series [2] of 1000 nM. The inhibition at 1 µM in series [1] came out at 83%. Further, the IC50 in series [3] stood at 1000 nM.

Take `c1csc(Cc2noc(-c3cn(CCN4CCOCC4)c4ccccc34)n2)c1` [Compound 4, 1-[2-(Morpholin-4-yl)ethyl]-3-(3-thien-2-ylmethyl-[1,2,4]oxadiazol-5-yl)-1H-indole]: the inhibition at 1 µM in series [1] was determined as 81%. Moreover, the IC50 in series [3] stood at 100 nM.

With `c1ccc(Cc2noc(-c3cn(CCN4CCCCC4)c4ccccc34)n2)cc1` [Compound 5, 3-(3-Benzyl-[1,2,4]oxadiazol-5-yl)-1-[2-(piperidin-1-yl)ethyl]-1H-indole], in series [1], the inhibition at 1 µM was 46%.

With `COc1ccc(Cc2noc(-c3cn(CCN4CCOCC4)c4ccccc34)n2)cc1` [Compound 6, 3-[3-(4-Methoxy-benzyl)-[1,2,4]oxadiazol-5-yl]-1-[2-(morpholin-4-yl)ethyl]-1H-indole], the IC50 in series [2] amounted to 2800 nM; in series [3], 200 nM. In addition, the inhibition at 1 µM in series [1] was found to be 39%.

`Brc1ccc(Cc2noc(-c3cn(CCN4CCOCC4)c4ccccc34)n2)cc1` [Compound 7, 3-[3-(4-Bromo-benzyl)-[1,2,4]oxadiazol-5-yl]-1-[2-(morpholin-4-yl)ethyl]-1H-indole]: the inhibition at 1 µM in series [1] is 58%.

As for `CCCCCn1cc(-c2nc(Cc3ccccc3)no2)c2ccccc21` [Compound 8, 3-(3-Benzyl-[1,2,4]oxadiazol-5-yl)-1-pentyl-1H-indole], the IC50 in series [2] came out at 400 nM; in series [3], 6 nM. Besides, the inhibition at 1 µM in series [1] came to 100%.

Molecule `c1ccc(CCc2noc(-c3cn(CCN4CCOCC4)c4ccccc34)n2)cc1` [Compound 9, 1-[2-(morpholin-4-yl)ethyl]-3-(3-phenethyl-[1,2,4]oxadiazol-5-yl)-1H-indole] registered an IC50 in series [2] of 1200 nM. The inhibition at 1 µM in series [1] was determined as 90%.

With `Clc1ccccc1Cc1noc(-c2cn(CCN3CCOCC3)c3ccccc23)n1` [Compound 10, 3-[3-(2-Chlorobenzyl)-[1,2,4]-oxadiazol-5-yl]-1-[2-(morpholin-4-yl)ethyl]-1H-indole], the inhibition at 1 µM in series [1] worked out at 95%.

With `c1ccc(-c2ccc(-c3noc(-c4cn(CCN5CCOCC5)c5ccccc45)n3)cc2)cc1` [Compound 11, 3-[3-(Biphenyl)-[1,2,4]oxadiazole-5-yl]-1-[2-(morpholin-4-yl)ethyl]-1H-indole], the IC50 in series [2] and in series [3] was above 10000 nM throughout. Further, the “CB1 (MVD) % inh at 1.0 μM” value in series [1] is listed as 11%.

With `c1ccc2cc(Cc3noc(-c4cn(CCN5CCCC5)c5ccccc45)n3)ccc2c1` [Compound 12, 3-[3-(naphth-2-ylmethyl)-[1,2,4]-oxadiazol-5-yl]-1-[2-(pyrolidin-1-yl)ethyl]-1H-indole], the “CB1 (MVD) % inh at 1.0 μM” value in series [1] is given as 96%.

On to `c1ccc2cc(Cc3noc(-c4cn(CCN5CCOCC5)c5ccccc45)n3)ccc2c1` [Compound 13, 3-[3-(naphth-2-ylmethyl)-[1,2,4]-oxadiazol-5-yl]-1-[2-(morpholin-4-yl)ethyl]-1H-indole], for which the inhibition at 1 µM in series [1] worked out at 54%.

With `CCOC(=O)CCCCn1cc(-c2nc(Cc3ccc4ccccc4c3)no2)c2ccccc21` [Compound 14, Ethyl 5-([3-(naphth-2-ylmethyl)-[1,2,4]-oxadiazole-5-yl]-1H-indol-1-yl)pentanoate], the “CB1 (MVD) % inh at 1.0 μM” value in series [1] is on record as 42%.

Take `O=C(O)CCCCn1cc(-c2nc(Cc3ccc4ccccc4c3)no2)c2ccccc21` [Compound 15, 5-([3-(Naphth-2-ylmethyl)-[1,2,4]-oxadiazole-5-yl]-1H-indol-1-yl)pentanoic acid]: in series [1], the “CB1 (MVD) % inh at 1.0 μM” value is given as 54%.

For `CCOC(=O)CCn1cc(-c2nc(Cc3ccc4ccccc4c3)no2)c2ccccc21` [Compound 16, Ethyl 3-([3-(naphth-2-ylmethyl)-1,2,4-oxadiazol-5-yl]-1H-indol-1-yl)propanoate], the “CB1 (MVD) % inh at 1.0 μM” value in series [1] was 77%.

In the case of `Cc1c(C(=O)c2cccc3ccccc23)c2cccc3c2n1[C@@H](CN1CCOCC1)CO3` [WIN-55212, WIN-55212-2, reference compound], the inhibition at 1 µM in series [1] amounted to 100%.

The record behind these values is US6930118B2, “3-Oxadiazol-5-yl-1-aminoalkyl-1h-indole derivatives” (Amrad Operations Pty. Ltd., priority 2001, dated 2005).
